# Data reported in paper PMC8998978, “Toward a Treatment of Cancer: Design and In Vitro/In Vivo Evaluation of Uncharged Pyrazoline Derivatives as a Series of Novel SHP2 Inhibitors” (International Journal of Molecular Sciences, 2022).
# Legend:
# [1] = Subacute toxicity assay; assay type: in vivo
# Protocol: In acute toxicity assay, 18 female Kunming mice (Jinan Pengyue Experimental Animal Breeding Co., Ltd., Jinan, China), 18–22 g of weight, were used. The mice were randomly divided into three groups (n = 6), and treated with vehicle (0.5% CMC-Na solution) or 4o (300, 2000 mg/kg) by gavage once. The body weight, toxicity effect, general behavior and mortality of mice were monitored within 14 days after 4o treatment. In subacute toxicity assay, 10 male and 10 female Kunming mice (Jinan Pengyue Experimental Animal Breeding Co., Ltd., Jinan, China), 18–22 g of weight, were used. The mice were randomly divided into two groups with 5 males and 5 females, and were orally treated with vehicle (0.5% CMC-Na solution) or 4o (1000 mg/kg) once a day for 28 days. […]. After 28 days of treatment, the mice were anaesthetized with isoflurane and killed by decapitation. The heart, liver, spleen and kidney tissues were collected, and histologically analyzed by H&E staining.
# [2] = test system: K562 cells; test: Cell viability assay (MTT); assay type: cell-based; settings: Homo sapiens, K562, 72 h
# Source text: Human colon cancer cell line HCT116, hepatoma cell lines HepG2 and BEL-7402, lung adenocarcinoma cell lines NCI-H1975 and 95-D, pancreatic cancer cell line Panc-1, breast cancer cell line MDA-MB-231, NSCLC cell line NCI-H1299, ovarian cancer cell line SK-OV-3, leukemia cell line K562, glioma cell line U87, colon epithelial cell line NCM460 and umbilical vein endothelial cell line HUVEC were purchased from the Institute of Biochemistry and Cell Biology, Chinese Academy of Sciences (Shanghai, China). HCT116 cell line was cultured in McCoy’s 5A medium (Hyclone, Logan, UT, USA). HepG2, 95-D, Panc-1, MDA-MB-231, BEL-7402, SK-OV-3, U87 and NCM460 cell lines were cultured in DMEM-High glucose medium (Hyclone, Logan, UT, USA). NCI-H1975, NCI-H1299 and HUVEC cell lines were cultured in RPMI 1640 medium (Hyclone, Logan, UT, USA). K562 cell line was cultured in IMDM medium (Hyclone, Logan, UT, USA). […]
# The inhibition rate of cell viability was detected by 3-(4,5-dimethyl-2-thiazolyl)-2,5-diphenyl-2-H-tetrazolium bromide (MTT, Solarbio, Beijing, China) or Sulforhodamine B (SRB, Sigma-Aldrich, St. Louis, MO, USA) assay. […] The absorbance at 570 nm was measured in a multimode reader (Berthold Technologies, Germany). […] Finally, Tris–HCl solution was added, and the absorbance at 515 nm was detected in a multimode reader (Berthold Technologies, Germany).
# [3] = target: T1, SHP2 protein in HCT116 cells (Homo sapiens, UniProt Q06124); test: Cellular thermal shift assay (CETSA); assay type: cell-based; settings: HCT116, 10 μM 4o, 3 h, versus DMSO
# T1 construct: endogenous in cells; host or cells: HCT116
# T1 sequence (Q06124 1-593): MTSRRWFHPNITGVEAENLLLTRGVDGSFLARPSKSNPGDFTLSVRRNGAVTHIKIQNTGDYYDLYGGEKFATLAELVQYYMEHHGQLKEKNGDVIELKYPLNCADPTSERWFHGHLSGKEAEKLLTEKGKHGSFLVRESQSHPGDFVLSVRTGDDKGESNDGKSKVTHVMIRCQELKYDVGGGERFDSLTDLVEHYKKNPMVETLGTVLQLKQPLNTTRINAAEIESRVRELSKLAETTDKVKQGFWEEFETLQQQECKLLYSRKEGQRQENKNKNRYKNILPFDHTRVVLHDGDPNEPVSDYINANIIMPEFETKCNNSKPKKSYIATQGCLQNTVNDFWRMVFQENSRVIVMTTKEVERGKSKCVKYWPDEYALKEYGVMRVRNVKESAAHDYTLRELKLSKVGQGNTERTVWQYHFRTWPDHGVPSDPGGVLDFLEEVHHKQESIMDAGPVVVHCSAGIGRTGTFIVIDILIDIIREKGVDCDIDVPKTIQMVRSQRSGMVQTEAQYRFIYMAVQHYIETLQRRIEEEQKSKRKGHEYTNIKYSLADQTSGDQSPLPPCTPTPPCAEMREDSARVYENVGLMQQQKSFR
# Protocol: The assay was performed as described previously. In brief, HCT116 cells were treated with DMSO or 4o for 3 h. Cells were resuspended in PBS and divided into four aliquots, and then the cell lysates were heated at different temperatures by T100^TM Thermal Cycler (Bio-Rad, Hercules, CA, USA). The heated cells were subjected to repeated freezing and thawing with liquid nitrogen for three times followed by centrifugation at 20,000× g for 20 min at 4 °C. Finally, the supernatants were gathered and boiled for 10 min after adding the loading buffer. Protein levels were assessed by Western blotting.
# [4] = test system: HCT116 cells; test: Colony formation assay; assay type: cell-based, human; settings: 4o 0.625, 1.25 and 2.5 μM, 8 days
# Protocol: HCT116 cells were seeded in 6-well plates at a density of 500 cells per well. After 24 h, cells were treated with different concentrations of 4o for 8 days. Subsequently, the culture medium was removed and the cells were fixed with methanol for 3 min, and stained with crystal violet (Solarbio, Beijing, China) for 15 min. Finally, colonies were counted and photographed.
# [5] = test system: HCT116 cells; test: Hoechst 33258 staining; assay type: cell-based, human; settings: HCT116, 4o 2.5, 5 and 10 μM, 24 h
# Protocol: HCT116 cells were treated with different concentrations of 4o for 24 h, then were stained with Hoechst 33,258 (Beyotime Institute of Biotechnology, Shanghai, China). The nuclear morphology was observed under fluorescence microscope.
structure (smiles),measurement,setting,value
"CCOc1ccc(Oc2ccc(C3=NN(C4=NC(=O)CS4)C(c4cc(O)c(O)c(Br)c4Br)C3)cc2)cc1 (centres unmarked) [Compound 4o, 2-(5-(2,3-dibromo-4,5-dihydroxyphenyl)-3-(4-(4-ethoxyphenoxy)phenyl)-4,5-dihydro-1H-pyrazol-1-yl)thiazol-4(5H)-one]",Body Weight (g) Day 0,[1]; 1000 mg/kg orally once a day,19.08 ± 0.95 g
same,Body Weight (g) Day 7,[1]; 1000 mg/kg orally once a day,27.52 ± 1.77 g
same,Body Weight (g) Day 14,[1]; 1000 mg/kg orally once a day,33.41 ± 3.49 g
same,Body Weight (g) Day 21,[1]; 1000 mg/kg orally once a day,35.49 ± 4.52 g
same,Body Weight (g) Day 28,[1]; 1000 mg/kg orally once a day,36.63 ± 4.84 g
same,Mortality,"[1]; 1000 mg/kg orally once a day, 28 days",0/10
same,"H&E staining of heart, liver, spleen and kidney","[1]; 1000 mg/kg orally, 28 days",no significant change in the cell morphology
same,IC50,[2],9.6 ± 0.68 µM
same,Stability of SHP2 protein (CETSA),[3],obviously increased
same,Colony formation of HCT116 cells,[4],significantly inhibited the colony formation
same,"Nuclear morphology (Hoechst 33,258 staining)",[5],chromatin was condensed and apoptosis occurred
